# Assay results from patent US10760110B2, “Antibiotic testing and screening system” (priority 2017, dated 2020).
# Like-named read-outs stand apart in the source and are kept apart here.
# Legend:
# Conditions in all cases: Klebsiella pneumoniae
# [1] = test system: K. pneumoniae NVT1001 ΔramRΔompK35/36 mutant and its revertants; test: Etest MIC, ΔramRΔompK35/36 mutant and its revertants (Table 7); type: cell-based
# [2] = test system: K. pneumoniae NVT1001 and its ΔompK35/36 and/or ΔramR mutants; test: Etest MIC, OmpK35/36 loss and AcrAB-TolC overexpression (ΔramR) strains (Table 6); type: cell-based, Klebsiella pneumoniae
# In short: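 Ceftazidime and cefotaxime were tested by CLSI broth microdilution on the blaOXA-48 pACYC177 transformant of NVT1001, using CLSI 2017 breakpoints. Parent, porin-deleted (ΔompK35/36) and ΔramR strains were tested by Etest, with values between two-fold dilutions rounded up.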
# [3] = test system: K. pneumoniae NVT1001 strains with carbapenemase plasmids; test: Etest MIC of β-lactams, OmpK35/36 loss, ΔramR and/or carbapenemase (Table 9); type: cell-based, Klebsiella pneumoniae
# Experimental: DNA fragments of the resistance genes along with their flanking regions were amplified from clinical plasmids via PCR with specific primer pairs. The resulting PCR fragments were digested and then cloned into the plasmid pACYC177 or pACYC184. The resulting plasmids were then transformed into K. pneumoniae strain NVT1001 via electroporation. The recombinant bacteria were plated onto LB agar plates containing kanamycin (50 mg/L) or chloramphenicol (50 mg/L), and the presence of the cloned gene was confirmed via PCR and DNA sequencing.
# The MICs of antibiotics were determined using the Etest (Biodisk AB, Sweden) according to the manufacturer's instructions. The MICs from the Etest, which fall between standard two-fold dilutions, were rounded up to the next highest two-fold value. The MICs of ceftazidime and cefotaxime against K. pneumoniae NVT1001 harbouring the pACYC177 plasmid with blaOXA-48 were further determined using a broth microdilution test according to the recommendations of the CLSI,^25 and the results were interpreted according to the breakpoints established by the CLSI in 2017.^25 Meanwhile, due to the lack of CLSI breakpoints in 2016 and 2017, the results for cephalothin were interpreted according to the breakpoints established by the CLSI in 2015,^26 and the results for moxifloxacin were interpreted according to the breakpoints established by the EUCAST in 2017.^27
compound,measurement,setting,value
CO/N=C(\C(=O)N[C@@H]1C(=O)N2C(C(=O)O)=C(COC(C)=O)CS[C@H]12)c1csc(N)n1 [Cefotaxime],MIC,[1]; ΔramRΔompK35/36::ompK35/36 revertant,1 µg/mL
same,MIC,[1]; ΔramRΔompK35/36::ompK35 revertant,4 µg/mL
same,MIC,[1]; ΔramRΔompK35/36::ompK36 revertant,1 µg/mL
same,MIC,[1]; ΔramRΔompK35/36::ramR revertant,2 µg/mL
same,MIC,[1]; ΔramRΔompK35/36::ramR::ompK35/36 revertant,0.06 µg/mL
same,MIC,[1]; ΔramRΔompK35/36::ramR::ompK35 revertant,0.25 µg/mL
same,MIC,[1]; ΔramRΔompK35/36::ramR::ompK36 revertant,0.125 µg/mL
same,MIC,[1]; ΔramRΔompK35/36 mutant,4 µg/mL
same,MIC,"[2]; WT, NVT1001, read-out: MIC",0.06 µg/mL
same,MIC,"[2]; Δ35, ΔompK35 mutant",0.125 µg/mL
same,MIC,"[2]; Δ35/36, ΔompK35/36 mutant",2 µg/mL
same,MIC,"[2]; Δ36, ΔompK36 mutant",0.25 µg/mL
same,MIC,[2]; ΔramR mutant,1 µg/mL
same,MIC,"[2]; ΔramRΔ35, ΔramRΔompK35 mutant",1 µg/mL
same,MIC,"[2]; ΔramRΔ35/36, ΔramRΔompK35/36 mutant",4 µg/mL
same,MIC,"[2]; ΔramRΔ36, ΔramRΔompK36 mutant",4 µg/mL
same,MIC,"[3]; IMP-8 on pACYC177, WT (NVT1001), read-out: MIC",64 µg/mL
same,MIC,"[3]; IMP-8 on pACYC177, Δ35 (ΔompK35 mutant)",128 µg/mL
same,MIC,"[3]; IMP-8 on pACYC177, Δ35/36 (ΔompK35/36 mutant)",> 256 µg/mL
same,MIC,"[3]; IMP-8 on pACYC177, Δ36 (ΔompK36 mutant)",256 µg/mL
same,MIC,"[3]; IMP-8 on pACYC177, ΔramR mutant",128 µg/mL
same,MIC,"[3]; IMP-8 on pACYC177, ΔramRΔ35 (ΔramRΔompK35 mutant)",128 µg/mL
same,MIC,"[3]; IMP-8 on pACYC177, ΔramRΔ35/36 (ΔramRΔompK35/36 mutant)",256 µg/mL
same,MIC,"[3]; IMP-8 on pACYC177, ΔramRΔ36 (ΔramRΔompK36 mutant)",256 µg/mL
same,MIC,"[3]; KPC-2 on pACYC177, WT (NVT1001), read-out: MIC",128 µg/mL
same,MIC,"[3]; KPC-2 on pACYC177, Δ35 (ΔompK35 mutant)",256 µg/mL
same,MIC,"[3]; KPC-2 on pACYC177, Δ35/36 (ΔompK35/36 mutant)",> 256 µg/mL
same,MIC,"[3]; KPC-2 on pACYC177, Δ36 (ΔompK36 mutant)",256 µg/mL
same,MIC,"[3]; KPC-2 on pACYC177, ΔramR mutant",256 µg/mL
same,MIC,"[3]; KPC-2 on pACYC177, ΔramRΔ35 (ΔramRΔompK35 mutant)",256 µg/mL
same,MIC,"[3]; KPC-2 on pACYC177, ΔramRΔ35/36 (ΔramRΔompK35/36 mutant)",> 256 µg/mL
same,MIC,"[3]; KPC-2 on pACYC177, ΔramRΔ36 (ΔramRΔompK36 mutant)",> 256 µg/mL
same,MIC,"[3]; KPC-3 on pACYC177, WT (NVT1001), read-out: MIC",128 µg/mL
same,MIC,"[3]; KPC-3 on pACYC177, Δ35 (ΔompK35 mutant)",256 µg/mL
same,MIC,"[3]; KPC-3 on pACYC177, Δ35/36 (ΔompK35/36 mutant)",> 256 µg/mL
same,MIC,"[3]; KPC-3 on pACYC177, Δ36 (ΔompK36 mutant)",256 µg/mL
same,MIC,"[3]; KPC-3 on pACYC177, ΔramR mutant",256 µg/mL
same,MIC,"[3]; KPC-3 on pACYC177, ΔramRΔ35 (ΔramRΔompK35 mutant)",256 µg/mL
same,MIC,"[3]; KPC-3 on pACYC177, ΔramRΔ35/36 (ΔramRΔompK35/36 mutant)",> 256 µg/mL
same,MIC,"[3]; KPC-3 on pACYC177, ΔramRΔ36 (ΔramRΔompK36 mutant)",> 256 µg/mL
same,MIC,"[3]; NDM-1 on pACYC177, WT (NVT1001), read-out: MIC",256 µg/mL
same,MIC,"[3]; NDM-1 on pACYC177, Δ35 (ΔompK35 mutant)",256 µg/mL
same,MIC,"[3]; NDM-1 on pACYC177, Δ35/36 (ΔompK35/36 mutant)",> 256 µg/mL
same,MIC,"[3]; NDM-1 on pACYC177, Δ36 (ΔompK36 mutant)",> 256 µg/mL
same,MIC,"[3]; NDM-1 on pACYC177, ΔramR mutant",> 256 µg/mL
same,MIC,"[3]; NDM-1 on pACYC177, ΔramRΔ35 (ΔramRΔompK35 mutant)",> 256 µg/mL
same,MIC,"[3]; NDM-1 on pACYC177, ΔramRΔ35/36 (ΔramRΔompK35/36 mutant)",> 256 µg/mL
same,MIC,"[3]; NDM-1 on pACYC177, ΔramRΔ36 (ΔramRΔompK36 mutant)",> 256 µg/mL
same,MIC,"[3]; OXA-48 on pACYC177, WT (NVT1001), read-out: MIC",2 µg/mL
same,MIC,"[3]; OXA-48 on pACYC177, Δ35 (ΔompK35 mutant)",4 µg/mL
same,MIC,"[3]; OXA-48 on pACYC177, Δ35/36 (ΔompK35/36 mutant)",32 µg/mL
same,MIC,"[3]; OXA-48 on pACYC177, Δ36 (ΔompK36 mutant)",16 µg/mL
same,MIC,"[3]; OXA-48 on pACYC177, ΔramR mutant",4 µg/mL
same,MIC,"[3]; OXA-48 on pACYC177, ΔramRΔ35 (ΔramRΔompK35 mutant)",4 µg/mL
same,MIC,"[3]; OXA-48 on pACYC177, ΔramRΔ35/36 (ΔramRΔompK35/36 mutant)",32 µg/mL
same,MIC,"[3]; OXA-48 on pACYC177, ΔramRΔ36 (ΔramRΔompK36 mutant)",32 µg/mL
same,MIC,"[3]; VIM-1 on pACYC177, WT (NVT1001), read-out: MIC",> 256 µg/mL
same,MIC,"[3]; VIM-1 on pACYC177, Δ35 (ΔompK35 mutant)",> 256 µg/mL
same,MIC,"[3]; VIM-1 on pACYC177, Δ35/36 (ΔompK35/36 mutant)",> 256 µg/mL
same,MIC,"[3]; VIM-1 on pACYC177, Δ36 (ΔompK36 mutant)",> 256 µg/mL
same,MIC,"[3]; VIM-1 on pACYC177, ΔramR mutant",> 256 µg/mL
same,MIC,"[3]; VIM-1 on pACYC177, ΔramRΔ35 (ΔramRΔompK35 mutant)",> 256 µg/mL
same,MIC,"[3]; VIM-1 on pACYC177, ΔramRΔ35/36 (ΔramRΔompK35/36 mutant)",> 256 µg/mL
same,MIC,"[3]; VIM-1 on pACYC177, ΔramRΔ36 (ΔramRΔompK36 mutant)",> 256 µg/mL
same,MIC,"[3]; no supplemental plasmid, WT (NVT1001), read-out: MIC",0.06 µg/mL
same,MIC,"[3]; no supplemental plasmid, Δ35 (ΔompK35 mutant)",0.125 µg/mL
same,MIC,"[3]; no supplemental plasmid, Δ35/36 (ΔompK35/36 mutant)",2 µg/mL
same,MIC,"[3]; no supplemental plasmid, Δ36 (ΔompK36 mutant)",0.25 µg/mL
same,MIC,"[3]; no supplemental plasmid, ΔramR mutant",1 µg/mL
same,MIC,"[3]; no supplemental plasmid, ΔramRΔ35 (ΔramRΔompK35 mutant)",1 µg/mL
same,MIC,"[3]; no supplemental plasmid, ΔramRΔ35/36 (ΔramRΔompK35/36 mutant)",4 µg/mL
same,MIC,"[3]; no supplemental plasmid, ΔramRΔ36 (ΔramRΔompK36 mutant)",4 µg/mL
